The values that follow come from ChEMBL document CHEMBL1641518, “Synthesis and biological evaluation of tubulysin D analogs related to stereoisomers of tubuvaline” (Bioorg Med Chem Lett, 2011).

For one test, the system named is MCF7. As to the kind of experiment: Cytotoxicity against human MCF7 cells after 72 hrs by MTT assay. It counts as functional, cell-based. The note with it: MCF7, 72 h.
The subject of a further test is A549. As to the kind of experiment: Cytotoxicity against human A549 cells after 72 hrs by MTT assay. It counts as functional, cell-based. The note with it: A549, 72 h.
A further test deals with Tubulin (Sus scrofa, UniProt P02554+P02550). The test can be described thus: Inhibition of porcine brain tubulin polymerization by microtubule assembly assay.
The test system of the next test is HL-60. As to the kind of experiment: Cytotoxicity against human HL60 cells after 72 hrs by MTT assay. It counts as functional, cell-based. The following applies: HL-60, 72 h.
The test system of the next test is HCT-116. As to the kind of experiment: Cytotoxicity against human HCT116 cells after 72 hrs by MTT assay. It counts as functional, cell-based. The note with it: HCT-116, 72 h.

SMILES strings stand for the structures.

By IC50 is commonly meant the midpoint of a concentration-inhibition curve. Low readings indicate greater potency, high ones weaker potency. For the compound `CC[C@H](C)[C@H](NC(=O)[C@H]1CCCCN1C)C(=O)N(COC(=O)CC(C)C)[C@H](C[C@@H](OC(C)=O)c1nc(C(=O)N[C@@H](Cc2ccccc2)C[C@H](C)C(=O)O)cs1)C(C)C` [TUBULYSIN D], the IC50 in the test on MCF7 turned out to be 0.67 nM; in the test with A549 it was 0.013 nM; on Tubulin, 1700 nM; with HL-60, 0.0047 nM; in the test with HCT-116 it was 0.0031 nM.

As to `CC[C@H](C)[C@H](NC(=O)[C@H]1CCCCN1C)C(=O)N[C@@H](C[C@@H](OC(C)=O)c1nc(C(=O)N[C@@H](Cc2ccccc2)C[C@H](C)C(=O)O)cs1)C(C)C` [13-EPI-TUBULYSIN D], the IC50 in the test on MCF7 worked out at 240 nM; in the test on A549, 1200 nM; on Tubulin, 1700 nM; in the test on HL-60, 98 nM; in the test with HCT-116, 920 nM.

`CC[C@H](C)[C@H](NC(=O)[C@H]1CCCCN1C)C(=O)N[C@@H](C[C@H](OC(C)=O)c1nc(C(=O)N[C@@H](Cc2ccccc2)C[C@H](C)C(=O)O)cs1)C(C)C`: the half-maximal inhibitory concentration (IC50) in the test on MCF7 was over 10000 nM; in the test on A549, over 10000 nM; against Tubulin it was 6300 nM; in the test with HL-60, 3600 nM; in the test with HCT-116, over 10000 nM.

Turning to `CC[C@]1(O)C[C@@H]2CN(CCc3c([nH]c4ccccc34)[C@@](C(=O)OC)(c3cc4c(cc3OC)N(C)[C@H]3[C@@](O)(C(=O)OC)[C@H](OC(C)=O)[C@]5(CC)C=CCN6CC[C@]43[C@@H]65)C2)C1` [VINBLASTINE], the IC50 stood at 0.79 nM in the test with MCF7, 17 nM in the test with A549, 1 nM in the test with HL-60 and 27 nM with HCT-116.

As to `CC[C@H](C)[C@H](NC(=O)[C@H]1CCCCN1C)C(=O)N[C@H](C[C@H](OC(C)=O)c1nc(C(=O)N[C@@H](Cc2ccccc2)C[C@H](C)C(=O)O)cs1)C(C)C` [11-EPI-TUBULYSIN D], the IC50 with MCF7 was determined as 280 nM; in the test on A549, 43 nM; against Tubulin, 1400 nM; in the test on HL-60, 3.1 nM; in the test on HCT-116, 13 nM.
